According to patent US12187773B2, “Modified GIP peptide analogues” (Antag Therapeutics ApS, priority 2018, dated 2025):
Read-outs that look alike come from different tables or passages of the source. *1 amine or outer side, *2 acyl side, *3 side chain or, on linkers, in order; H or OH if unused. Where a SMILES comes first, the peptide text is derived from it. Side-chain parts run from the residue outwards. [ ]: non-standard residue; d: D form. The star is where a group is joined. C16 diacid = O=C(O)CCCCCCCCCCCCCCC(=O)*; γGlu = O=C(O)[C@H](CCC(=O)[*:2])N[*:1]; pGlu = O=C1CC[C@@H](C(=O)O)N1; AEEA = NCCOCCOCC(=O)O

What was measured:
human GIP receptor [1] = target: T1, human GIP receptor (Homo sapiens, UniProt P48546); test: cAMP agonism (CisBio cAMP Dynamic 2 HTRF assay); assay type: cell-based; details: HEK293, read-out: cAMP agonism, % Efficacy, Table 1C, HEK-293 cells
T1 sequence (P48546 22-466): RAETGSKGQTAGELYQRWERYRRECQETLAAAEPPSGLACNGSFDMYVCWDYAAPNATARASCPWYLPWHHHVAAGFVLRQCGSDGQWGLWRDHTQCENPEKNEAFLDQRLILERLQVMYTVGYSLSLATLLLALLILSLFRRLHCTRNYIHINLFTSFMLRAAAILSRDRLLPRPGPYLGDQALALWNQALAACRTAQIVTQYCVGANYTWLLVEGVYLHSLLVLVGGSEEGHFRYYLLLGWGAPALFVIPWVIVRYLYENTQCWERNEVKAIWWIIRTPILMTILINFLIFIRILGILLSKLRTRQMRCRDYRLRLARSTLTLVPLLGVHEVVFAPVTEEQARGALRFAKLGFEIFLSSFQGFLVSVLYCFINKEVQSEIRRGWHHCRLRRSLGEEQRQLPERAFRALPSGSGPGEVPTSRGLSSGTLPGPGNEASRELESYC
Description: To test for agonistic properties at the GIP receptor, compounds were diluted and added to cells as described above and incubated for 30 min at 37° C. The resulting increase in intracellular cAMP was determined using the CisBio cAMP Dynamic 2 HTRF Assay Kit as described above.

[2] = Elimination half-life (T1/2) estimated in Göttingen minipigs; assay type: in vivo
Description: 2-3 Göttingen minipigs were subcutaneously administered one of the GIP analogues of the present invention (1-10 nmol/kg, total volume 2-6 mL) and blood samples were collected before and up to 432 hours post subcutaneous administration.) from a central venous catheter. The catheter was flushed with saline and heparin between samples. Blood was collected into cold EDTA tubes, centrifuged and plasma was kept at −20° C. pending analyses.
Concentrations of the acylated GIP(3-30)NH2 or GIP(5-30)NH2 analogues in blood samples from Göttingen minipigs were analyzed by RIA. Analogues' immunoreactivity was determined using antiserum Ab95234, Ab95235, Ab95236, a polyclonal in-house antibody raised in rabbits specific for either the mid region of GIP(1-30)NH2 or amidated C-terminus of GIP(3-30)NH2.
In addition to the hormone analysis, blood concentrations of AT374, 380, 382-385, 392-393 were determined by LC/MS performed by Red Glead Discovery AB, Lund, Sweden. The plasma samples were precipitated by addition of 3 parts ethanol followed by thorough mixing. After centrifugation and dilution of the supernatant, the samples were analyzed by LC-MS/MS and compared with a 9-point calibration curve. The calibration curves were prepared in naïve plasma matrix from Göttingen minipigs.

human GIP receptor [3] = target: T1, human GIP receptor; test: cAMP antagonism (CisBio cAMP Dynamic 2 HTRF assay); assay type: cell-based; set-up: pCMV-Script vector; details: Table 1C, CisBio, HEK-293 cells; for IC50: cAMP antagonism, nM (IC50), agonist GIP1-42 at EC50
Outline: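 Four-parameter fits of cAMP dose-response gave pIC50. cAMP fall was quantified by HTRF competition, ratio 665/620 nm after 60 min at room temperature, against a cAMP standard curve.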

human GIP receptor [4] = target: T1, human GIP receptor; test: cAMP accumulation, antagonism (DiscoveRx HitHunter cAMP XS assay); assay type: cell-based; set-up: host or cells: COS-7 (transient, calcium phosphate; pCMV-Script vector); details: for cAMP antagonism, % inhib: COS-7 cells, % inhibition of Emax
Outline: (§1)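 cAMP accumulation measured by HitHunter cAMP XS in COS-7 cells transiently expressing human GIP receptor, after 30 min in HBS with 1 mM IBMX at 37 °C. Antagonists preincubated 10 min before GIP giving 50-80% of maximum, then 20 min more; agonist mode used 30 min ligand exposure.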

human GIP receptor [5] = target: T1, human GIP receptor; test: cAMP accumulation, agonism (DiscoveRx HitHunter cAMP XS assay); assay type: cell-based; set-up: host or cells: COS-7 (transient, calcium phosphate; pCMV-Script vector); details: for cAMP agonism, Emax: Table 1B, DiscoveRx, COS-7 cells
Outline: as §1

[6] = sc, Table 1B, species not given, unit h, LC/MS in Göttingen minipig plasma for these IDs, subcutaneous 1-10 nmol/kg, read-out: T½ (converted)
[7] = cAMP antagonism, nM (IC50), Table 1B, DiscoveRx, transiently transfected COS-7 cells

Row | Compound | Emax (human GIP receptor [1]) | half-life [2, 6] | cAMP antagonism, % inhib (human GIP receptor [3]) | IC50 (human GIP receptor [3]) | IC50 (human GIP receptor [4]; IC50-value (GIPR antagonism), Examples 1 and 2, values of Tables 1B and 2) | cAMP antagonism, % inhib (human GIP receptor [4]; Table 1B, DiscoveRx) | cAMP agonism, Emax (human GIP receptor [5]) | half-life ([2]; Göttingen, minipig, plasma, subcutaneous, Example 1, read-out: T1/2 (converted)) | IC50 (human GIP receptor [4]; [7]) | Emax (human GIP receptor [5]; COS-7, read-out: cAMP agonism, Emax)
1 | CC[C@H](C)[C@H](NC(=O)[C@H](CO)NC(=O)[C@H](Cc1ccc(O)cc1)NC(=O)[C@H](CC(=O)O)NC(=O)[C@H](CO)NC(=O)[C@@H](NC(=O)[C@H](Cc1ccccc1)NC(=O)[C@@H](NC(=O)CNC(=O)[C@@H](N)CCC(=O)O)[C@@H](C)O)[C@@H](C)CC)C(=O)N[C@@H](C)C(=O)N[C@@H](CCSC)C(=O)N[C@@H](CC(=O)O)C(=O)N[C@@H](CCCNC(=N)N)C(=O)N[C@H](C(=O)N[C@@H](CCCCNC(=O)COCCOCCNC(=O)COCCOCCNC(=O)CC[C@H](NC(=O)CCCCCCCCCCCCCCC(=O)O)C(=O)O)C(=O)N[C@@H](CCC(N)=O)C(=O)N[C@@H](CCC(N)=O)C(=O)N[C@@H](CC(=O)O)C(=O)N[C@@H](Cc1ccccc1)C(=O)N[C@H](C(=O)N[C@@H](CC(N)=O)C(=O)N[C@@H](Cc1c[nH]c2ccccc12)C(=O)N[C@@H](CC(C)C)C(=O)N[C@@H](CC(C)C)C(=O)N[C@@H](C)C(=O)N[C@@H](CCC(N)=O)C(=O)N[C@@H](CCCNC(=N)N)C(N)=O)C(C)C)[C@@H](C)CC [AT374] (H-EGTFISDYSIAMDRIK([AEEA-AEEA-γGlu-C16 diacid])QQDFVNWLLAQR-NH2; N-terminus assumed) | 0% | 14 h | 86% | 17.1 nM | 12 nM | 100% | No Agonism | – | – | –
2 | CC[C@H](C)[C@H](NC(=O)[C@H](CO)NC(=O)[C@H](Cc1ccc(O)cc1)NC(=O)[C@H](CC(=O)O)NC(=O)[C@H](CO)NC(=O)[C@@H](NC(=O)[C@H](Cc1ccccc1)NC(=O)[C@@H](NC(=O)CNC(=O)[C@@H]1CCC(=O)N1)[C@@H](C)O)[C@@H](C)CC)C(=O)N[C@@H](C)C(=O)N[C@@H](CCSC)C(=O)N[C@@H](CC(=O)O)C(=O)N[C@@H](CCCNC(=N)N)C(=O)N[C@H](C(=O)N[C@@H](CCCCNC(=O)COCCOCCNC(=O)COCCOCCNC(=O)COCCOCCNC(=O)CC[C@H](NC(=O)CCCCCCCCCCCCCCC(=O)O)C(=O)O)C(=O)N[C@@H](CCC(N)=O)C(=O)N[C@@H](CCC(N)=O)C(=O)N[C@@H](CC(=O)O)C(=O)N[C@@H](Cc1ccccc1)C(=O)N[C@H](C(=O)N[C@@H](CC(N)=O)C(=O)N[C@@H](Cc1c[nH]c2ccccc12)C(=O)N[C@@H](CC(C)C)C(=O)N[C@@H](CC(C)C)C(=O)N[C@@H](C)C(=O)N[C@@H](CCC(N)=O)C(=O)N[C@@H](CCCNC(=N)N)C(N)=O)C(C)C)[C@@H](C)CC [AT380] ([pGlu]GTFISDYSIAMDRIK([AEEA-AEEA-AEEA-γGlu-C16 diacid])QQDFVNWLLAQR-NH2) | 8% | 20 h | 82% | 85.8 nM | – | 100% | No Agonism | 20 h | 7 nM | –
3 | CC[C@H](C)[C@H](NC(=O)[C@H](CO)NC(=O)[C@H](Cc1ccc(O)cc1)NC(=O)[C@H](CC(=O)O)NC(=O)[C@H](CO)NC(=O)[C@@H](NC(=O)[C@H](Cc1ccccc1)NC(=O)[C@@H](NC(=O)CNC(=O)[C@@H](N)CO)[C@@H](C)O)[C@@H](C)CC)C(=O)N[C@@H](C)C(=O)N[C@@H](CCSC)C(=O)N[C@@H](CC(=O)O)C(=O)N[C@@H](CCCNC(=N)N)C(=O)N[C@H](C(=O)N[C@@H](CCCCNC(=O)COCCOCCNC(=O)COCCOCCNC(=O)CC[C@H](NC(=O)CCCCCCCCCCCCCCC(=O)O)C(=O)O)C(=O)N[C@@H](CCC(N)=O)C(=O)N[C@@H](CCC(N)=O)C(=O)N[C@@H](CC(=O)O)C(=O)N[C@@H](Cc1ccccc1)C(=O)N[C@H](C(=O)N[C@@H](CC(N)=O)C(=O)N[C@@H](Cc1c[nH]c2ccccc12)C(=O)N[C@@H](CC(C)C)C(=O)N[C@@H](CC(C)C)C(=O)N[C@@H](C)C(=O)N[C@@H](CCC(N)=O)C(=O)N[C@@H](CCCNC(=N)N)C(N)=O)C(C)C)[C@@H](C)CC [AT516] (H-SGTFISDYSIAMDRIK([AEEA-AEEA-γGlu-C16 diacid])QQDFVNWLLAQR-NH2; N-terminus assumed) | 0% | – | 88% | – | – | 100% | No Agonism | – | 31 nM | –
4 | CC[C@H](C)[C@H](NC(=O)[C@H](CO)NC(=O)[C@H](Cc1ccc(O)cc1)NC(=O)[C@H](CC(=O)O)NC(=O)[C@H](CO)NC(=O)[C@@H](NC(=O)[C@H](Cc1ccccc1)NC(=O)[C@@H](NC(=O)CNC(=O)[C@@H]1CCCN1)[C@@H](C)O)[C@@H](C)CC)C(=O)N[C@@H](C)C(=O)N[C@@H](CCSC)C(=O)N[C@@H](CC(=O)O)C(=O)N[C@@H](CCCNC(=N)N)C(=O)N[C@H](C(=O)N[C@@H](CCCCNC(=O)COCCOCCNC(=O)COCCOCCNC(=O)CC[C@H](NC(=O)CCCCCCCCCCCCCCC(=O)O)C(=O)O)C(=O)N[C@@H](CCC(N)=O)C(=O)N[C@@H](CCC(N)=O)C(=O)N[C@@H](CC(=O)O)C(=O)N[C@@H](Cc1ccccc1)C(=O)N[C@H](C(=O)N[C@@H](CC(N)=O)C(=O)N[C@@H](Cc1c[nH]c2ccccc12)C(=O)N[C@@H](CC(C)C)C(=O)N[C@@H](CC(C)C)C(=O)N[C@@H](C)C(=O)N[C@@H](CCC(N)=O)C(=O)N[C@@H](CCCNC(=N)N)C(N)=O)C(C)C)[C@@H](C)CC [AT518] (H-PGTFISDYSIAMDRIK([AEEA-AEEA-γGlu-C16 diacid])QQDFVNWLLAQR-NH2; N-terminus assumed) | 0% | – | 71% | 85.8 nM | – | 100% | – | – | – | 5%
